Test results published in paper PMC4746629, “Small-molecule inhibition of PTPRZ reduces tumor growth in a rat model of glioblastoma” (Scientific Reports, 2016).
Entries after “also recorded” stand apart in the source; their conditions may differ. Values belong to the compound of their own block, whether it stands above or below them.

What was measured:
[1] = biological target: PTPRZ-ICR Y1756F mutant (Homo sapiens, UniProt P23471, DEL1723-1729/Y1756F); test: Inhibitor sensitivity of site-directed mutant, pCAP assay; details: compounds 10 μM or vanadate 200 μM, 20 μM pCAP-GIT1_549–556
Description: (G) Inhibitor sensitivity.
(§1) Two hundred microliters of pCAP-peptide substrates (20 μM) in a three-component buffer of pH 7.0 (100 mM acetate, 50 mM Tris, and 50 mM Bis-Tris) containing 5 mM DTT and 0.01% (v/v) Brij-35 were preincubated in a cuvette at room temperature. The reaction was initiated by adding 2 μl of an enzyme solution, and incubated for ~100 s; the amount of the enzyme was adjusted to give a convenient rate. Compounds were then added to the same cuvette at a 1/100 volume. In each experiment, the hydrolysis of the pCAP residue was continuously monitored as an increase in fluorescence at 460 nm (excitation at 334 nm) using a spectrofluorometer (FI-4500, Hitachi). We measured the slope of the linear increase of the fluorescence signal as an indicator of catalytic activity, which was obtained during the 40 s before and after the addition of a compound. The inhibitory effects of each compound were determined by the ratio of the activities, and indicated as the relative value to that of DMSO control.
(§2) respective full-length clones, and the cDNA fragments were fused in frame to the
(§3) coding sequence of glutathione S-transferase (GST) of the Escherichia coli (E. coli)
(§4) expression vector, pGEX-6P (GE Healthcare).
(§5) point mutants, pGEX-6P-PTPRZ-ICR was used as a template with a Quikchange
(§6) multisite-directed mutagenesis kit (Stratagene).

[2] = biological target: T1, human PTPN6 (Homo sapiens, UniProt P29350); test: PTP selectivity assay with DiFMUP substrate
T1 sequence (P29350 220-523): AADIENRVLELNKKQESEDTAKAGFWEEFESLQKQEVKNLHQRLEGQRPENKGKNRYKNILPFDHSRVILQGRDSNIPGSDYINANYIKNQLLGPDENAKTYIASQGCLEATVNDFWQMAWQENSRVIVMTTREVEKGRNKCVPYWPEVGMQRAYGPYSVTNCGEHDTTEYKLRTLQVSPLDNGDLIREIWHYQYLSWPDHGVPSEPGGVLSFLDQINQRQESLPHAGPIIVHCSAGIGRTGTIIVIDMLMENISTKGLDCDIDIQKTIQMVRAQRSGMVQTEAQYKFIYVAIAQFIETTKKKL
Description: (§7) Human PTPRZ-ICR (0.1 nM) was added to the substrate solution (closed arrowheads), and was followed by the addition of test compounds at the indicated concentrations (open arrowheads). The slope of the fluorescence signal during the 40 s before and after the addition of a compound was measured, and the inhibitory effects of each compound were determined by the ratio of the two. […] The inhibition assay was performed with 20 μM DiFMUP, a non-specific PTP substrate.
(§8) pCAP substrate, and DMSO were 10 µg/ml, 20 µM, and 1% (v/v), respectively.
(§9) Fluorescence was measured at excitation/emission wavelengths of 380/460 nm
(§10) using an EnVision Multilabel Reader (PerkinElmer).
(§11) calculated by nonlinear regression (JMP software, SAS Institute).
(§12) type was analyzed by a Lineweaver-Burk plot according to Michaelis-Menten
(§13) BSA, 5 mM DTT and 0.01% Brij-35) with DiFMUP
(§14) (6,8-difluoro-4-methylumbiliferyl phosphate, Molecular probe) as a nonspecific PTP
(§15) substrate. One hundred microliters of 40 µM DiFMUP were preincubated in a
cuvette at room temperature.
(§16) In each experiment, the hydrolysis of DiFMUP
(§17) was continuously monitored for ~100 s as an increase in fluorescence at 455 nm
(§18) (excitation at 358 nm) using a spectrofluorometer (FI-4500, Hitachi). We
(§19) measured the slope of the linear increase of the fluorescence signal as an indicator
(§20) of catalytic activity. IC50 values were determined as above.

[3] = biological target: T2, human PTPRS (Homo sapiens, UniProt Q13332); test: PTP selectivity assay with DiFMUP substrate
T2 sequence (Q13332 1304-1948): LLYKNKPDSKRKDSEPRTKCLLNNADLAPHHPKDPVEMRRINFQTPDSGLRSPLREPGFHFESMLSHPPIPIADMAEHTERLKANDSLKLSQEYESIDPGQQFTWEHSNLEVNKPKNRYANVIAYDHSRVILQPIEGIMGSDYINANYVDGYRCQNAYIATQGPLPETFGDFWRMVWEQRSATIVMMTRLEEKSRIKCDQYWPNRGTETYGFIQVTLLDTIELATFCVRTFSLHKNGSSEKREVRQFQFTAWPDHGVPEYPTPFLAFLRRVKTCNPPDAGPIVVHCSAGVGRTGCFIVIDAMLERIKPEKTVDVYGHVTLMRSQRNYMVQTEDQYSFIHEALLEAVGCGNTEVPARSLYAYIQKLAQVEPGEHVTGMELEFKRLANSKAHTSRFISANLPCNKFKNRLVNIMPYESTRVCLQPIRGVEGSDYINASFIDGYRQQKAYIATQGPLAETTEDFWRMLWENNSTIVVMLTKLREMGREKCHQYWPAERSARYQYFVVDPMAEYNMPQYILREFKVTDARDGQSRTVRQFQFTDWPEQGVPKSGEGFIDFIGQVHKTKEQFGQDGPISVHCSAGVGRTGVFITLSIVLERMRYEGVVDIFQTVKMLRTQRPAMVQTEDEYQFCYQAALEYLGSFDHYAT
Description: as §7, §8, §9, §10, §11, §12, §13, §14, §15
cuvette at room temperature.
as §16, §17, §18, §19, §20

[4] = system: C6 cells; test: Stability of SCB4380 in C6 cells, time-lapse microscopy after microinjection; type: cell-based, rat
[5] = as above; type: cell-based, rat; details: rat; after direct microinjection, time-lapse microscopy; read-out: Average half-life for disappearance of the fluorescent signal in C6 cells
[6] = biological target: T3, human PTPN1 (Homo sapiens, UniProt P18031); test: PTP selectivity assay with DiFMUP substrate
T3 sequence (P18031 1-321): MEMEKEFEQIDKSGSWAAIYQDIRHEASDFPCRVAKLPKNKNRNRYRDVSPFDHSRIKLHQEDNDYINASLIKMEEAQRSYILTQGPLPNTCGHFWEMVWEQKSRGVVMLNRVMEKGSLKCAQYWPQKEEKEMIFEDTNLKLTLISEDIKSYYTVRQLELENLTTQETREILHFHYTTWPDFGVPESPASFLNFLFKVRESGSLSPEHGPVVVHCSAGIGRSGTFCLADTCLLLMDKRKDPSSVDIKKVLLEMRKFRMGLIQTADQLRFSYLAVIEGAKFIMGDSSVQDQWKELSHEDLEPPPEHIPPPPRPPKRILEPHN
Description: as §7, §8, §9, §10, §11, §12, §13, §14, §15
cuvette at room temperature.
as §16, §17, §18, §19, §20

[7] = Parallel artificial membrane permeability assay (PAMPA); type: in vitro ADME
[8] = biological target: PTPRZ (Homo sapiens, UniProt P23471, DEL1723-1729); test: PTP selectivity assay with DiFMUP substrate
Description: as §7
(§21) min with 1 M Tris HCl, pH 9.2 (20 µl). The final concentrations of compounds, the
as §8, §9
(§22) using an EnVision Multilabel Reader (PerkinElmer). A decrease of more than
(§23) 40% in the signal intensity against the DMSO control was considered to be a
(§24) potential hit, and reproducibility was examined with a freshly prepared stock.
(§25) three-component buffer at pH 7.0 using a 384-well plate. The reaction was […]
(§26) calculated by nonlinear regression (JMP software, SAS Institute). […]
(§27) type was analyzed by a Lineweaver-Burk plot according to Michaelis-Menten […]
(§28) was continuously monitored for ~100 s as an increase in fluorescence at 455 nm […]
as §19, §20

[9] = biological target: human PTPRA (Homo sapiens, UniProt P18433); test: PTP selectivity assay with DiFMUP substrate
Description: as §7, §21, §8, §9, §22, §23, §24, §25, §26, §27, §28, §19, §20

[10] = biological target: T4, PTPRZ-ICR (Homo sapiens, UniProt P23471, DEL1723-1729); test: Isothermal titration calorimetry
Description: Titration isotherm (with error bars). The isotherm was fit to a one-to-one binding model (solid line) using the program SEDPHAT (ref. [48]) with a 1:1 binding model (B). The single dissociation constant and enthalpy change are indicated in the inset. Residuals calculated by subtracting fit values from observed values (C).
The titration sequence included a single 0.4 μl injection followed by 19 injections of 2 μl each at an interval of 120 s between the injections.

[11] = biological target: T4, PTPRZ-ICR; test: Mass spectrometry under non-denaturing conditions (native MS) binding
Description: PTPRZ-ICR was mixed with the indicated compounds, and their binding to PTPRZ-ICR was monitored by MS under non-denaturing conditions. […] The concentrations of PTPRZ-ICR proteins used for the assay were estimated to be approximately 0.2 to 0.3 μM by SDS-PAGE followed by CBB staining.
Ten microliter aliquots were mixed with equal volumes of each compound solution, and the samples were immediately analyzed by nanoflow electrospray using in-house made gold-coated glass capillaries (~2 μl sample was loaded for each analysis). […] Spectra were calibrated using 1 mg/ml cesium iodide, and analyzed by Mass Lynx software (Waters).

[12] = biological target: PTPRZ-ICR N1758D mutant (Homo sapiens, UniProt P23471, DEL1723-1729/N1758D); test: Inhibitor sensitivity of site-directed mutant, pCAP assay; details: compounds 10 μM, 20 μM pCAP-GIT1_549–556
Description: (G) Inhibitor sensitivity.
as §1, §2, §3, §4, §5, §6

[13] = biological target: mouse PTPRB (Mus musculus, UniProt B2RU80); test: PTP selectivity assay with DiFMUP substrate
Description: as §7, §8, §9, §10, §11, §12, §13, §14, §15
cuvette at room temperature.
as §16, §17, §18, §19, §20

[14] = biological target: human PTPRG (Homo sapiens, UniProt P23470); test: PTP selectivity assay with DiFMUP substrate
Description: as §7, §21, §8, §9, §22, §23, §24, §25, §26, §27, §28, §19, §20

[15] = biological target: human PTPRM (Homo sapiens, UniProt P28827); test: PTP selectivity assay with DiFMUP substrate
Description: as §7, §21, §8, §9, §22, §23, §24, §25, §26, §27, §28, §19, §20

[16] = biological target: T4, PTPRZ-ICR; test: Hydrolysis of pCAP-GIT1_549–556 by human PTPRZ-ICR, IC50 and kinetic analysis
Description: as §7, §21, §8, §9, §22, §23, §24, §25, §26, §27, §28, §19, §20

[17] = biological target: T4, PTPRZ-ICR; test: In vitro dephosphorylation assay, single concentration of SCB4380 analogues; type: biochemical; parameters: PTPRZ (ICR, amino acid residues 1698-2315); FLAG (followed by HRV 3C site) (N, cleaved yes); made in house; host or cells: silkworm (Bombyx mori) pupae, BmNPV baculovirus; details: compound 10 μM, substrate 20 μM, human PTPRZ-ICR 0.1 nM
Source text: No significant effects were detected with compounds 7 to 10. TEXT PRINTED IN THE PICTURE: (B) 7: (no inhibition) | (B) 8: (no inhibition) | (B) 9: (no inhibition) | (B) 10: (no inhibition)

[18] = system: C6 glioblastoma cells; test: Cell proliferation assay; type: cell-based, rat; details: parent C6 cells, liposome delivery

PTPRZ-ICR N1758D mutant, sequence (P23471 1698-2308 isoform P23471-2 N1751D limits assumed): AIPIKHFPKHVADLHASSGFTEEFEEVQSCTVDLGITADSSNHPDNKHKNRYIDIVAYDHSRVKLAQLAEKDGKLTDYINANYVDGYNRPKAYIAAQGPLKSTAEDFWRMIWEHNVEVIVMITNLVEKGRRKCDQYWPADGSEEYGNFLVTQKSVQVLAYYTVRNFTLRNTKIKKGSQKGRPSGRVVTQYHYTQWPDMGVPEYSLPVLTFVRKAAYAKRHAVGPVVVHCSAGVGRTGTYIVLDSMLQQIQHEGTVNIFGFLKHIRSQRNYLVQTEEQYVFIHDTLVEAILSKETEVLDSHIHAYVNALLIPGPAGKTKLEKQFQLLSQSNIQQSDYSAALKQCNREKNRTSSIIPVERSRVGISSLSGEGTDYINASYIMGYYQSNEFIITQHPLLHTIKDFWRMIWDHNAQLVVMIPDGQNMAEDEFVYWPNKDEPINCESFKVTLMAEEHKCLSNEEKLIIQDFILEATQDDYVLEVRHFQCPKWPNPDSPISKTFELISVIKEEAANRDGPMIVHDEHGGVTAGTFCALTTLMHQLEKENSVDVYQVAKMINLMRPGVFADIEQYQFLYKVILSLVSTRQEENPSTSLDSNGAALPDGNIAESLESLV
T4 sequence (P23471 1698-2308 isoform P23471-2 limits assumed, stated change not applied): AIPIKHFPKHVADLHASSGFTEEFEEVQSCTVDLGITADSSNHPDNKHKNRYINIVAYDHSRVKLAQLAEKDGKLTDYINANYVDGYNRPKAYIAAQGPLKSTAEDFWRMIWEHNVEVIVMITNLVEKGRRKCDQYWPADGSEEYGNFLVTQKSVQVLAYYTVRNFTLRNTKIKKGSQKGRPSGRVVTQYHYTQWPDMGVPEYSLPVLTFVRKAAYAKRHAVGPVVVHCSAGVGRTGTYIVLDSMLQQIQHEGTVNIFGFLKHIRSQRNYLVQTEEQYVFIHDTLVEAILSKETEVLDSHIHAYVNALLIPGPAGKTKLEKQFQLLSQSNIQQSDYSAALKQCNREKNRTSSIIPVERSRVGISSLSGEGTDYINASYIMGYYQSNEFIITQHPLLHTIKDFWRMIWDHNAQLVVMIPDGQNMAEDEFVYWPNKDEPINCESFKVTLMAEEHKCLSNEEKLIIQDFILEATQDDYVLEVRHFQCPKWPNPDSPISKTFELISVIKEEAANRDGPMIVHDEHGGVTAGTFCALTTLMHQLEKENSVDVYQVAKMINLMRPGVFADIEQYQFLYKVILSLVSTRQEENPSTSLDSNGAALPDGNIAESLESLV
PTPRZ-ICR Y1756F mutant, sequence (P23471 1698-2308 isoform P23471-2 Y1749F limits assumed): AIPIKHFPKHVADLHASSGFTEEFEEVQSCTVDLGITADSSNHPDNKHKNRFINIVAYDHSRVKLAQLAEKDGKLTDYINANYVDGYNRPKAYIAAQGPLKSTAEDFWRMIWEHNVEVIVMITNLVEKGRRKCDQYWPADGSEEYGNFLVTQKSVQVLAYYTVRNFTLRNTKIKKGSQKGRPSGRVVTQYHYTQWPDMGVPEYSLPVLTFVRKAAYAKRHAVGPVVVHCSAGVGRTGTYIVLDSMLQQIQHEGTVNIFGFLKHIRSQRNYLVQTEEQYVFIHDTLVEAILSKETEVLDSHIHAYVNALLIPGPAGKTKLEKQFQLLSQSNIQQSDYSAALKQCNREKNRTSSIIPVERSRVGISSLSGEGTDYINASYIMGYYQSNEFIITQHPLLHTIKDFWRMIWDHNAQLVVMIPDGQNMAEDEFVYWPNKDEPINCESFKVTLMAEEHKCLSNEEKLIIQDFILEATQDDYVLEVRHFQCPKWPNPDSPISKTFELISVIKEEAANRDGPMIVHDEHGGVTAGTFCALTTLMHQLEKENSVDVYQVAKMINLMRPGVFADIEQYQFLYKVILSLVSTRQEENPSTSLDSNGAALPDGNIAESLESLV
human PTPRM, sequence (P28827 765-1452): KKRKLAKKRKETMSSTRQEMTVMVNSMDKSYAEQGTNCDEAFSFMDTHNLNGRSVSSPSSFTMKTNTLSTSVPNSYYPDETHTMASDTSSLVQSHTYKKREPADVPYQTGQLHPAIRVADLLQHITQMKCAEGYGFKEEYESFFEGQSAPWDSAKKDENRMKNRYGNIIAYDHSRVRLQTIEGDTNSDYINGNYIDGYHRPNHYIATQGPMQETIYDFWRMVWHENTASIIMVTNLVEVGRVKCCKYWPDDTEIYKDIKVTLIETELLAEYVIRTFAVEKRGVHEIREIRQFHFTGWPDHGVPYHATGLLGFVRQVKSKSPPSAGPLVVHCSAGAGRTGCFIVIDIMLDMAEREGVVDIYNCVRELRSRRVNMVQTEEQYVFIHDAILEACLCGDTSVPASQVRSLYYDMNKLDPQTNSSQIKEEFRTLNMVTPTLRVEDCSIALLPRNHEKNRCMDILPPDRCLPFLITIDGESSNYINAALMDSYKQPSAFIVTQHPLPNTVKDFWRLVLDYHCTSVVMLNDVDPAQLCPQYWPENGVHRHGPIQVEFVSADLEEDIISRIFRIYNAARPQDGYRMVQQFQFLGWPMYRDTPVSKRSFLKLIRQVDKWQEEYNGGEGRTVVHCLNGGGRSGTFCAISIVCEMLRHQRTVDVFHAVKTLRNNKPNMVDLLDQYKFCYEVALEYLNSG
mouse PTPRB, sequence (B2RU80 1644-1997 limits assumed): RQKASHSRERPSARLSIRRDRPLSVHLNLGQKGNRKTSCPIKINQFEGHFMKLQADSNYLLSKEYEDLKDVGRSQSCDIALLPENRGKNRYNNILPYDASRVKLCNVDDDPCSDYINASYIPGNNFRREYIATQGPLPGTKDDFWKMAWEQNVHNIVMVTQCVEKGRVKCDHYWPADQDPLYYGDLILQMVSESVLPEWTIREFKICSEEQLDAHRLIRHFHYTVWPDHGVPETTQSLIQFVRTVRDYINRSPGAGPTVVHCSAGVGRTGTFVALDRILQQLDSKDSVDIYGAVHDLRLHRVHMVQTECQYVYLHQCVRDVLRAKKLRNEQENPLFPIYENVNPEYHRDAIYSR
PTPRZ, sequence (P23471 1698-2308 isoform P23471-2 limits assumed, stated change not applied): as the sequence (P23471 1698-2308 isoform P23471-2 limits assumed, stated change not applied) above
human PTPRG, sequence (P23470 790-1445): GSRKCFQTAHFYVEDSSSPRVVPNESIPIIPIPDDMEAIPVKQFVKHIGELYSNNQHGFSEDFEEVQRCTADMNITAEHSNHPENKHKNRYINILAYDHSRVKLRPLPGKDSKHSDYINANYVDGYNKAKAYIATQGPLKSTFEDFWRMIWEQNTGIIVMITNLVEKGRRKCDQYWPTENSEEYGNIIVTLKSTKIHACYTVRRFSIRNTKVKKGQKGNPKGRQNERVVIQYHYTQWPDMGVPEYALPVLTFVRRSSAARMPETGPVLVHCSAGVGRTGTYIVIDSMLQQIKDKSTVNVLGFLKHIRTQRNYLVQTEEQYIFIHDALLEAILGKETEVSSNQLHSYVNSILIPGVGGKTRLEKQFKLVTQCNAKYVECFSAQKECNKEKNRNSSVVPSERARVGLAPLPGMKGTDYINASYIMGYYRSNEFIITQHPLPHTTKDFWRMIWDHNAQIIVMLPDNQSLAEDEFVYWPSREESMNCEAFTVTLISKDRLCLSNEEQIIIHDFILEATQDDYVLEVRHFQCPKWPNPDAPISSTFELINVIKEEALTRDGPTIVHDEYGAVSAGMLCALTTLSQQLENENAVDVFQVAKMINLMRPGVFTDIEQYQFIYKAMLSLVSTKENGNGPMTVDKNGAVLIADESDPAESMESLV

Inhibitory effect on hydrolysis of pCAP-GIT1_549–556 (residual enzymatic activity relative to DMSO control) [17]: no inhibition
SMILES: O=S(=O)(O)c1cccc2ccccc12 [compound 10, sodium 1-naphthalenesulfonate]

Inhibitory effect on hydrolysis of pCAP-GIT1_549–556 (residual enzymatic activity relative to DMSO control) [17]: no inhibition
SMILES: O=Nc1c(O)c(S(=O)(=O)O)cc2cc(S(=O)(=O)O)ccc12 [compound 7, disodium 1-nitroso-2-naphthol-3,6-disulfonate monohydrate]

Inhibitory effect on hydrolysis of pCAP-GIT1_549–556 (residual enzymatic activity relative to DMSO control) [17]: no inhibition
SMILES: O=S(=O)([O-])c1ccc2cc(O)c(S(=O)(=O)[O-])cc2c1.[Na+].[Na+] [compound 8, disodium 3-hydroxy-2,7-naphthalenedisulfonate]

Inhibitory effect on hydrolysis of pCAP-GIT1_549–556 (residual enzymatic activity relative to DMSO control) [17]: no inhibition
SMILES: Nc1ccc(S(=O)(=O)O)c2ccccc12 [compound 9, 4-amino-1-naphthalenesulfonic acid]

The remaining lines, values behind:

SMILES: O=S(=O)([O-])c1ccc2c(N=Nc3ccc(S(=O)(=O)[O-])c4ccccc34)c(O)c(S(=O)(=O)[O-])cc2c1.[Na+].[Na+].[Na+] [SCB4380, trisodium 3-hydroxy-4-[(4-sulfonato-1-naphthyl)diazenyl]-2,7-naphthalenedisulfonate]
Inhibitor sensitivity of Y1756F mutant versus wild-type enzyme [1]: impaired the inhibition by SCB4380 markedly
IC50 [2]: 24.6 µM
IC50 [3]: 14.8 µM
Stability in living cells [4]: substantial instability
half-life [5]: ~50 min
IC50 [6]: 19.5 µM
Membrane permeability [7]: deficient and low
IC50 [8]: 0.4 µM
IC50 [9]: 75.7 µM
Kd [10]: 1.23 µM
ΔH (enthalpy change, ITC) ([10]; 298.15 K, pH 7.5): -14 kcal/mol
Binding to PTPRZ-ICR by native MS [11]: bound to Z-ICR in a one-to-one stoichiometry
Inhibitor sensitivity of N1758D mutant versus wild-type enzyme [12]: resistant to inhibition
IC50 [13]: 73.8 µM
IC50 [14]: 0.4 µM
IC50 [15]: 60.7 µM
IC50 [16]: 0.4 µM
Inhibition type by Lineweaver-Burk plot analysis ([16]; human PTPRZ-ICR, pCAP-peptide substrate): competitive

SMILES: O=S(=O)([O-])c1ccc(N=Nc2c(O)ccc3ccccc23)c2ccccc12.[Na+] [compound 4, sodium 4-(2-hydroxy-1-naphthalenylazo)-1-naphthalenesulfonate]
Inhibitor sensitivity of N1758D mutant versus wild-type enzyme [12]: no changes in sensitivity

SMILES: O=[N+]([O-])c1ccc(N=Nc2c(O)c(S(=O)(=O)[O-])cc3cc(S(=O)(=O)[O-])ccc23)cc1.[Na+].[Na+] [compound 6, sodium 3-hydroxy-4-[(4-nitrophenyl)diazenyl]-2,7-naphthalenedisulfonate]
Inhibitory effect on hydrolysis of pCAP-GIT1_549–556 (residual enzymatic activity relative to DMSO control) [17]: markedly abolished inhibitory activity; also recorded: weakly inhibited

SMILES: O=S(=O)([O-])c1ccc2c(N=Nc3cccc4ccccc34)c(O)c(S(=O)(=O)[O-])cc2c1.[Na+].[Na+] [compound 5, disodium 3-hydroxy-4-(1-naphthyldiazenyl)-2,7-naphthalenedisulfonate]
Inhibitory effect on hydrolysis of pCAP-GIT1_549–556 (residual enzymatic activity relative to DMSO control) [17]: markedly abolished inhibitory activity
Inhibitory effect on hydrolysis of pCAP-GIT1_549–556 (residual enzymatic activity relative to DMSO control) ([17]; listed as Compound 5): weakly inhibited
Inhibitor sensitivity of N1758D mutant versus wild-type enzyme [12]: resistant to inhibition

SMILES: O=S(=O)([O-])c1ccc2c(N=Nc3ccc(S(=O)(=O)[O-])c4ccccc34)c(O)ccc2c1.[Na+].[Na+] [compound 3, disodium 6-hydroxy-5-[(4-sulfonato-1-naphthyl)diazenyl]-2-naphthalene sulfonate]
Binding to PTPRZ-ICR by native MS [11]: no binding activity
Inhibitor sensitivity of N1758D mutant versus wild-type enzyme [12]: no changes in sensitivity

SMILES: [O]=[V]([O-])([O-])[O-] [vanadate, reference compound]
Inhibitor sensitivity of Y1756F mutant versus wild-type enzyme [1]: not by vanadate

SMILES: O=S(=O)([O-])c1cc(S(=O)(=O)[O-])c2c(N=Nc3ccc(S(=O)(=O)[O-])c4ccccc34)c(O)ccc2c1.[Na+].[Na+].[Na+] [compound 2, trisodium 7-hydroxy-8-[(4-sulfonato-1-naphthyl)diazenyl]-1,3-naphthalenedisulfonate]
Binding to PTPRZ-ICR by native MS [11]: no binding activity
Inhibitory effect on hydrolysis of pCAP-GIT1_549–556 (residual enzymatic activity relative to DMSO control) [17]: almost no inhibition
Proliferation of C6 glioblastoma cells (increase in cell number in 24 h) [18]: did not show suppressive effects
